The values that follow come from PMC9886283, “Specific gene module pair-based target identification and drug discovery” (Frontiers in Pharmacology, 2023).

SMILES strings stand for the structures. Structures can show the parent of a compound that is named as a salt. Where two headings read alike, the source gives them in different places.

Assay [1] deals with PI3Kδ (Homo sapiens, UniProt O00329). The assay can be described thus: PI3Kδ kinase assay (ADP-Glo-based biochemical assay). In general terms: In ADP-Glo the light output rises with the ADP produced.
Procedure: (§1) This study aims to determine the effect of test compounds on PI3Kα/β/δ enzyme activity using ADP-Glo-based biochemical assay (Vendor: Promega, Cat#: V9102), following the manufacturer’s instruction. […] Then, the IC50s were calculated by fitting % inhibition values and the log of compound concentrations to the hill slope with the variable slope (called the variable slope model or four-parameter dose-response curve), and the log (inhibitor) vs. response curve was built by GraphPad Prism version 7.0 (GraphPad Software). Data are presented as mean ± SEM, with n = 3 for each drug dose.
Assay [2] concerns the target PI3Kα (Homo sapiens, UniProt P42336). The assay can be described thus: PI3Kα kinase assay (ADP-Glo-based biochemical assay).
Procedure: as §1
For assay [3], the target named is PI3Kβ (Homo sapiens, UniProt P42338). The assay can be described thus: PI3Kβ kinase assay (ADP-Glo-based biochemical assay). As to conditions: n = 3 per dose.
Procedure: as §1
Assay [4] concerns N-methyl-D-aspartic acid (NMDA) receptor. The following applies: uncompetitive, low-affinity, non-selective antagonist; ref Lipton, 2007; cited from earlier work.
Setting [5] is: ADP-Glo, n = 3 per dose, read-out: IC50 PI3Kδ.
The mark [6] stands for this setting: ADP-Glo, n = 3 per dose, read-out: IC50 PI3Kα.

PI3Kα, sequence (P42336 whole entry): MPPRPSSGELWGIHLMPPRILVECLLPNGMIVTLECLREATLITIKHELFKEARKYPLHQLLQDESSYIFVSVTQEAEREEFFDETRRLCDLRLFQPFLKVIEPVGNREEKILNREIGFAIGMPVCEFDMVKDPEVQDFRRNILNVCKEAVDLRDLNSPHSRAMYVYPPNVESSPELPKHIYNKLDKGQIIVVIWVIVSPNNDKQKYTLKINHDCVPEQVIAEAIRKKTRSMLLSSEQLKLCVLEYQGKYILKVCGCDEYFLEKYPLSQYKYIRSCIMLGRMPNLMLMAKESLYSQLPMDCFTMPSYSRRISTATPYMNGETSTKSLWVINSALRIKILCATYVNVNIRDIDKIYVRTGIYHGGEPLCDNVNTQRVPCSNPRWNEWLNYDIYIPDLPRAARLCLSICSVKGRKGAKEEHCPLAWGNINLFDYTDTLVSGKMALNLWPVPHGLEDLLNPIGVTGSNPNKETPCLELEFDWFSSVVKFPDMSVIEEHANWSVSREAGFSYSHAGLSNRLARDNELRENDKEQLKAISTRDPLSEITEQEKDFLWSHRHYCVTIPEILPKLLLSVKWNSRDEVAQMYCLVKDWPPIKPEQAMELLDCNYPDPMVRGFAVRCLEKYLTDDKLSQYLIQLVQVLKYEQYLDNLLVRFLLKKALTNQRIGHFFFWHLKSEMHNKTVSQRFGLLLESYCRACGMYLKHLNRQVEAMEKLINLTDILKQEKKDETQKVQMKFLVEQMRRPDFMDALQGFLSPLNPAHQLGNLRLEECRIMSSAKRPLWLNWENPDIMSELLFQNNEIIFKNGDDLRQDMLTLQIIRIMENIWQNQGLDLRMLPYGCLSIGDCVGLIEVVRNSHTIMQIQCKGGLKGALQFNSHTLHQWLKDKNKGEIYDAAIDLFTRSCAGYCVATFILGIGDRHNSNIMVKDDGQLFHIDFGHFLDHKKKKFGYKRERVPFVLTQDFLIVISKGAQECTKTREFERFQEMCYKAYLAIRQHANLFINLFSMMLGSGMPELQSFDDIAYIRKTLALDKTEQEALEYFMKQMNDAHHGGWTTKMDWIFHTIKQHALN
PI3Kα, sequence (P27986 whole entry partner): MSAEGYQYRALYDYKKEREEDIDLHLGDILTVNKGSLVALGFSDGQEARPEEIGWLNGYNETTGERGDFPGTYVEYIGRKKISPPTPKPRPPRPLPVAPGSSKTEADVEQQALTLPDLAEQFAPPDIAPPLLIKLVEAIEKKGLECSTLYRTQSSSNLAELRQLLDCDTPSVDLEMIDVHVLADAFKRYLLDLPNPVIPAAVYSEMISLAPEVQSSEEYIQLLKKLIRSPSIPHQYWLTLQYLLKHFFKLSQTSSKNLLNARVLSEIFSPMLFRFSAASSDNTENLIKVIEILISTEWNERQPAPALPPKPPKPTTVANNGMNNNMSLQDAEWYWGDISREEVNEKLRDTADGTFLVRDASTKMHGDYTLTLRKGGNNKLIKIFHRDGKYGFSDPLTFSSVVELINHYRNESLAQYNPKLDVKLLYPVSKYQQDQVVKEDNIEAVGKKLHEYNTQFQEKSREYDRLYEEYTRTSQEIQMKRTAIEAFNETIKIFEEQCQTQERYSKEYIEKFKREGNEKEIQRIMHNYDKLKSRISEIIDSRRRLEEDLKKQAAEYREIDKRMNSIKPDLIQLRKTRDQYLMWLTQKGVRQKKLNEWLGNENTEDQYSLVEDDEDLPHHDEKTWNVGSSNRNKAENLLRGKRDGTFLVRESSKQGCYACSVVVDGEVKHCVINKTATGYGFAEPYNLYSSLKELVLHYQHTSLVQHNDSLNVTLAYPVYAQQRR
PI3Kδ, sequence (O00329 whole entry): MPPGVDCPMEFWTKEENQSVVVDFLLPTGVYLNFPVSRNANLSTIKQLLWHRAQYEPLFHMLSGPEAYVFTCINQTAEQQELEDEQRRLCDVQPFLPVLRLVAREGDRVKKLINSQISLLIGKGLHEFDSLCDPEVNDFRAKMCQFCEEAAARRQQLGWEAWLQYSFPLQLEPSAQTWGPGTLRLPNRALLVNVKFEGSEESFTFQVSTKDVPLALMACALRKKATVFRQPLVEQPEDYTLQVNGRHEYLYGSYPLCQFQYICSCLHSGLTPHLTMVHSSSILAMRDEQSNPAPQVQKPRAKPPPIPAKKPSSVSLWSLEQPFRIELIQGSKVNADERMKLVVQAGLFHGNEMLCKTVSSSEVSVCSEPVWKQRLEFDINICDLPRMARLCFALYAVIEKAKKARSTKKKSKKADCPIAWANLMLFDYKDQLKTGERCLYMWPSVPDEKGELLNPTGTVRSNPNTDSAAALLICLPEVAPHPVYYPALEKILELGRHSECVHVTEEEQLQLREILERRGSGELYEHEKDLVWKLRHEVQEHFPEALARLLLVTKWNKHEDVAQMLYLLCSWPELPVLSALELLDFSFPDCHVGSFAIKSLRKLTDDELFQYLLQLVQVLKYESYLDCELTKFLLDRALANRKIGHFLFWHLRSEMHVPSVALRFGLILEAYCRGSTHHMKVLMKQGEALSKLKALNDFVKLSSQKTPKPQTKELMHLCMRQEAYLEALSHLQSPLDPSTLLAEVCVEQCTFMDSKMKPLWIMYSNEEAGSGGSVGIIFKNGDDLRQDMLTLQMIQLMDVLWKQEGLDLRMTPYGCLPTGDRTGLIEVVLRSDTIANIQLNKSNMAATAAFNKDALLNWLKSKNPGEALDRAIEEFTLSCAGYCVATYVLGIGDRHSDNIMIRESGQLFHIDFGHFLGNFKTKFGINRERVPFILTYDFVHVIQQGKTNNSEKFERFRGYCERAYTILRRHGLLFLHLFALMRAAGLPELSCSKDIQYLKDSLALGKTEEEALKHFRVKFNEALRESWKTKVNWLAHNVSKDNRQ
PI3Kδ, sequence (P27986 whole entry partner): as the sequence (P27986 whole entry partner) above
PI3Kβ, sequence (P42338 whole entry): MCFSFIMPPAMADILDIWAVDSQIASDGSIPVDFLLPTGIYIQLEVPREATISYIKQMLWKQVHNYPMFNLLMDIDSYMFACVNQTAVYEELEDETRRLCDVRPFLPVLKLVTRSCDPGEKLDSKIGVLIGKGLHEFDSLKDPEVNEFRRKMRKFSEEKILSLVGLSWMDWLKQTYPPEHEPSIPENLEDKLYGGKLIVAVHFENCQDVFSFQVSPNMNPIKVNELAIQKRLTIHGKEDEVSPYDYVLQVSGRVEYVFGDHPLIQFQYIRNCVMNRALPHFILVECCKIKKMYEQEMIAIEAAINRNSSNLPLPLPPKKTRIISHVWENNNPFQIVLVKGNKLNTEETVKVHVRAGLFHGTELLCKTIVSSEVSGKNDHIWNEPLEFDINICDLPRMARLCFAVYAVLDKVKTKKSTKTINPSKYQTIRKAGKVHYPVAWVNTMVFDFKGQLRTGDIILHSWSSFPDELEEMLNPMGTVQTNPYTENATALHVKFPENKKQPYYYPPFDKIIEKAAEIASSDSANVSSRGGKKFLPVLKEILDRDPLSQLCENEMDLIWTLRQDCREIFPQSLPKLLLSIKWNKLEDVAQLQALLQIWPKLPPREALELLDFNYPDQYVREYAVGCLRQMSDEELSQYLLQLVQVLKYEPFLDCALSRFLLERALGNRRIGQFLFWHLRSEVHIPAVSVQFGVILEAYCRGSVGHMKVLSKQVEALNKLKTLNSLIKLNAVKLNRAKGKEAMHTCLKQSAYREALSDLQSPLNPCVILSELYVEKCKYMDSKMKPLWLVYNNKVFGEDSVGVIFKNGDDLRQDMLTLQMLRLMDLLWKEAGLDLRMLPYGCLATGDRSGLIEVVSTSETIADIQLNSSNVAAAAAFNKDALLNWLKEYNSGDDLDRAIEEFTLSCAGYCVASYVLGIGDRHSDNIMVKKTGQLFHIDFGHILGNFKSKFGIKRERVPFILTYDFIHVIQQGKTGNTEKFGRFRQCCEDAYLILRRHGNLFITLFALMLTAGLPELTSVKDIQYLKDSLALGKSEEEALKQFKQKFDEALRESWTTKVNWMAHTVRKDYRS
PI3Kβ, sequence (P27986 whole entry partner): as the sequence (P27986 whole entry partner) above

As to `CC(C)NCCCn1c(Sc2cc3c(cc2I)OCO3)nc2c(N)ncnc21` [PU-H71], in assay [1] (setting [5]), the half-inhibitory concentration (IC50) (in general, the midpoint of a concentration-inhibition curve) was 20 µM.
On to `O=C(c1ccc(OCCN2CCCCC2)cc1)c1c(-c2ccc(O)cc2)sc2cc(O)ccc12` [Raloxifene HCl, raloxifene HCl], for which the values for the half-inhibitory concentration (IC50) in assay [2] (setting [6]), in assay [1] (setting [5]) and in assay [3] were 16 µM, 4.3 µM and 8.4 µM, respectively.
On to `CC/C(=C(\c1ccccc1)c1ccc(OCCN(C)C)cc1)c1ccccc1` [Tamoxifen, tamoxifen], for which the 50% inhibitory concentration (IC50) in assay [2] (setting [6]) was found to be 19 µM; in assay [1] (setting [5]), 10 µM; in assay [3], 14 µM.
For the compound `CO[C@H]1/C=C\C=C(/C)C(=O)NC2=CC(=O)C(NCCN(C)C)=C(C[C@@H](C)C[C@H](OC)[C@H](O)[C@@H](C)/C=C(\C)[C@@H]1OC(N)=O)C2=O` [alvespimycin], the concentration for half-maximal inhibition (IC50) was determined as 93 µM in assay [2] (setting [6]), 28 µM in assay [1] (setting [5]) and 69 µM in assay [3].
`COc1ccc(CCN2CCC(Nc3nc4ccccc4n3Cc3ccc(F)cc3)CC2)cc1` [astemizole]: the IC50 worked out at 18 µM in assay [2] (setting [6]), 6 µM in assay [1] (setting [5]) and 8.7 µM in assay [3].
`CC12CC3CC(C)(C1)CC(N)(C3)C2` [memantine]: the “affinity for NMDA receptor” value in assay [4] is “micromolar range”.
As to `c1nc2nc(Nc3ccc(N4CCOCC4)cc3)nc(NC3CCCCC3)c2[nH]1` [reversine], the IC50 in assay [2] worked out at 12 µM; in assay [1], 3.5 µM.
